Values after ≈ are worked out from the molar mass of the structure shown. Values belong to the molecule of their own block, whether it stands above or below them. Active and inactive are the calls of the source. The calls are words filed in the database; no cut-off is given here.
Legend:
HepG2 = assay: Cytotoxicity against human HepG2 cells up to 100 uM after 48 hrs by WST1 assay; type: cell-based; settings: hepg2, 48 h
[1] = target: T1, Retinoic acid receptor RXR-alpha (Homo sapiens, UniProt P19793); assay: Agonist activity at human Gal4-DBD fused RXRalpha LBD expressed in HEK293T cells after 12 to 14 hrs by luciferase reporter gene assay; type: cell-based; settings: read-out: EC50
T1 sequence (P19793 whole entry): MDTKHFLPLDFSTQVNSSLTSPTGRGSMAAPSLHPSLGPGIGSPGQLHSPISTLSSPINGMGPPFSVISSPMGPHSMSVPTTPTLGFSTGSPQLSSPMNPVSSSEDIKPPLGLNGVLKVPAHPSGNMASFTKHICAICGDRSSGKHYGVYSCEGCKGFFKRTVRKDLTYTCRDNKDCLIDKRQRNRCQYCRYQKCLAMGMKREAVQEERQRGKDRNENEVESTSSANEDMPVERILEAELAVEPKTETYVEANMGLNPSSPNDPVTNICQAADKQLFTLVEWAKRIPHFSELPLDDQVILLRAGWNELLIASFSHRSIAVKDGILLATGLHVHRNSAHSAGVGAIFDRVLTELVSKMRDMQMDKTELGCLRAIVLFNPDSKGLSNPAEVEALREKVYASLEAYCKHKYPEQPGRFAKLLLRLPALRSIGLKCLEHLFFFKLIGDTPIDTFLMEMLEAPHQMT

[2] = target: T2, Retinoic acid receptor RXR-gamma (Homo sapiens) (UniProt P48443); assay: Agonist activity at human Gal4-DBD fused RXRgamma LBD expressed in HEK293T cells after 12 to 14 hrs by luciferase reporter gene assay relative to bexarotene; type: cell-based
T2 sequence (whole entry): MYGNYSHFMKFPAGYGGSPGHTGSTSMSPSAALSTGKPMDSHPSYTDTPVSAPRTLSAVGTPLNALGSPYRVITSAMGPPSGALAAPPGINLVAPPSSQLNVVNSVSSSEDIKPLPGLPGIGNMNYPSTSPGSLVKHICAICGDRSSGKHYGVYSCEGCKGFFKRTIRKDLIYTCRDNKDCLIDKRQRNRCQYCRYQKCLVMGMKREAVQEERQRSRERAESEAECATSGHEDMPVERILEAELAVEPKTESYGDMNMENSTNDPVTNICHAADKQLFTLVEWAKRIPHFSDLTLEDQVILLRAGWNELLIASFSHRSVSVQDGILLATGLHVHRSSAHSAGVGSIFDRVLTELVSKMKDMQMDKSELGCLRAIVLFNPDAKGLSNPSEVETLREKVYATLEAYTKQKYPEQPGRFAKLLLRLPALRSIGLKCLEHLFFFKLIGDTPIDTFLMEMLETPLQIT

[3] = target: T3, Retinoic acid receptor RXR-beta (Homo sapiens) (UniProt P28702); assay: Agonist activity at human Gal4-DBD fused RXRbeta LBD expressed in HEK293T cells after 12 to 14 hrs by luciferase reporter gene assay relative to bexarotene; type: cell-based
T3 sequence (whole entry): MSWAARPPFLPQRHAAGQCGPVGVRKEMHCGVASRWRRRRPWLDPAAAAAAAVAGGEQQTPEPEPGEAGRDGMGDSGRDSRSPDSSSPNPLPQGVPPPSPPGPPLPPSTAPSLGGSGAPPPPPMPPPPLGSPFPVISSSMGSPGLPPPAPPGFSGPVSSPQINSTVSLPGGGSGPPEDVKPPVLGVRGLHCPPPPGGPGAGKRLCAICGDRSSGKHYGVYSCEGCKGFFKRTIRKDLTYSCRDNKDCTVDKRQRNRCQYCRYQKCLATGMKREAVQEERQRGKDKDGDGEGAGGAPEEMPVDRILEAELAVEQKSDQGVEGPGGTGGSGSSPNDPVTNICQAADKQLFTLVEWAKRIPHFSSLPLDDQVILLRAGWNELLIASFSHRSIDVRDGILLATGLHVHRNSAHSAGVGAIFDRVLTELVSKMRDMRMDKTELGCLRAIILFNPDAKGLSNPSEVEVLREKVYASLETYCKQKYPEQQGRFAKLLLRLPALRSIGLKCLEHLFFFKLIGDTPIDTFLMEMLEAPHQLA

[4] = target: T4, Retinoic acid receptor beta (Homo sapiens) (UniProt P10826); assay: Agonist activity at human Gal4-DBD fused RARbeta LBD expressed in HEK293T cells at 30 uM after 12 to 14 hrs by luciferase reporter gene assay; type: cell-based
T4 sequence (whole entry): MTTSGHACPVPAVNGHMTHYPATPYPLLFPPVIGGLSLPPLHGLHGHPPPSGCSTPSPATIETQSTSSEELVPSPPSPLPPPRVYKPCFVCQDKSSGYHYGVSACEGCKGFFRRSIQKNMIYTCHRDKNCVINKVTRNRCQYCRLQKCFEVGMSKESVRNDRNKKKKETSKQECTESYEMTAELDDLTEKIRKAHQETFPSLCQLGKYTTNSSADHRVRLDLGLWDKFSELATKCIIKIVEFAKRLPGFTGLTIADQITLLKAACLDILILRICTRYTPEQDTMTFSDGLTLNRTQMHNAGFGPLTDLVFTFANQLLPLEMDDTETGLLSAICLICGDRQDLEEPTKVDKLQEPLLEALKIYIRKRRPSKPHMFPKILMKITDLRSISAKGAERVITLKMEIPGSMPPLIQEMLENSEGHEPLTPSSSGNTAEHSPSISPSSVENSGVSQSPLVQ

[5] = target: T5, Retinoic acid receptor RXR-alpha (Homo sapiens) (UniProt P19793); assay: Agonist activity at human Gal4-DBD fused RXRalpha LBD expressed in HEK293T cells at 10 uM after 12 to 14 hrs by luciferase reporter gene assay; type: cell-based
T5 sequence (whole entry): T1 sequence (P19793 whole entry)

[6] = target: T6, Retinoic acid receptor RXR-beta (Homo sapiens, UniProt P28702); assay: Agonist activity at human Gal4-DBD fused RXRbeta LBD expressed in HEK293T cells after 12 to 14 hrs by luciferase reporter gene assay; type: cell-based; settings: read-out: EC50
T6 sequence (P28702 whole entry): T3 sequence (whole entry)

[7] = target: T7, Retinoic acid receptor alpha (Homo sapiens) (UniProt P10276); assay: Agonist activity at human Gal4-DBD fused RARalpha LBD expressed in HEK293T cells at 30 uM after 12 to 14 hrs by luciferase reporter gene assay; type: cell-based
T7 sequence (whole entry): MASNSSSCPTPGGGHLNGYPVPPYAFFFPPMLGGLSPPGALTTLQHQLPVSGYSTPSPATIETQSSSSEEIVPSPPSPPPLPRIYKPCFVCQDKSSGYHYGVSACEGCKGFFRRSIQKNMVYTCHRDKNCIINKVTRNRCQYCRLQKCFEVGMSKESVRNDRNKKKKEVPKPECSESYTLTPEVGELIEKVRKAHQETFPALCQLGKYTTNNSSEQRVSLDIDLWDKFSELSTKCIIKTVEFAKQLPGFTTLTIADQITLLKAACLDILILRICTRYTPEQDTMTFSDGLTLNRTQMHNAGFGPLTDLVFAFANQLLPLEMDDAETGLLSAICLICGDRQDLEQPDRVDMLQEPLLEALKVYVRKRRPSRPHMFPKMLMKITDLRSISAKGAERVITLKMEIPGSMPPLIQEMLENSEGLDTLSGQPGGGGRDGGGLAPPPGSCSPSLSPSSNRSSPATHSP

[8] = target: T8, Retinoic acid receptor gamma (Homo sapiens) (UniProt P13631); assay: Agonist activity at human Gal4-DBD fused RARgamma LBD expressed in HEK293T cells at 30 uM after 12 to 14 hrs by luciferase reporter gene assay; type: cell-based
T8 sequence (whole entry): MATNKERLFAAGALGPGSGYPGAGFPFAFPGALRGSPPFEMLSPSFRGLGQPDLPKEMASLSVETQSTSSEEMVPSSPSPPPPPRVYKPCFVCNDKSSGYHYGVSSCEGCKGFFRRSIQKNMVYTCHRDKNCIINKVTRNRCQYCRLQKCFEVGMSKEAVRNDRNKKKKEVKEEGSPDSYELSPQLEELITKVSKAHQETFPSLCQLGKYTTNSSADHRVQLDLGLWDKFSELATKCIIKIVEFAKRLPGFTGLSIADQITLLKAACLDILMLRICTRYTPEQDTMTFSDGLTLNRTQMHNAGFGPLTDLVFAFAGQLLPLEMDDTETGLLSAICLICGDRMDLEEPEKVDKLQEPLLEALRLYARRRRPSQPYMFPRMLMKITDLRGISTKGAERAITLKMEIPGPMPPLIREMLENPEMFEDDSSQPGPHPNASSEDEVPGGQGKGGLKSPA

[9] = target: T5, Retinoic acid receptor RXR-alpha (Homo sapiens); assay: Agonist activity at human Gal4-DBD fused RXRalpha LBD expressed in HEK293T cells after 12 to 14 hrs by luciferase reporter gene assay relative to bexarotene; type: cell-based
[10] = target: T9, Retinoic acid receptor RXR-gamma (Homo sapiens, UniProt P48443); assay: Agonist activity at human Gal4-DBD fused RXRgamma LBD expressed in HEK293T cells after 12 to 14 hrs by luciferase reporter gene assay; type: cell-based; settings: read-out: EC50
T9 sequence (P48443 whole entry): T2 sequence (whole entry)

[11] = target: Luciferin 4-monooxygenase (Photinus pyralis) (UniProt P08659); assay: Inhibition of firefly luciferase activity in HEK293T cells co-expressing human Gal4-DBD fused RXRalpha LBD after 12 to 14 hrs by luminescence assay; type: cell-based
[12] = target: Luciferin 4-monooxygenase (Photinus pyralis) (UniProt P08659); assay: Inhibition of firefly luciferase activity in HEK293T cells co-expressing human Gal4-DBD fused RXRbeta LBD after 12 to 14 hrs by luminescence assay; type: cell-based
[13] = target: Luciferin 4-monooxygenase (Photinus pyralis) (UniProt P08659); assay: Inhibition of firefly luciferase activity in HEK293T cells co-expressing human Gal4-DBD fused RXRgamma LBD after 12 to 14 hrs by luminescence assay; type: cell-based
[14] = target: T10, Retinoid X receptor (Homo sapiens) (UniProt P28702+P48443+P19793); assay: Agonist activity at RXR in human HepG2 cells assessed as induction of ANGPTL4 mRNA expression at 1 to 10 uM after 8 hrs by RT-PCR analysis; type: cell-based
Homo sapiens [15] = species on record: Homo sapiens; assay: Agonist activity at full length human RXR-LXR expressed in HEK293T cells co-expressing ABCA1-pGL3 at 1 uM after 12 to 14 hrs by luciferase reporter gene assay; type: cell-based
Homo sapiens [16] = species on record: Homo sapiens; assay: Synergistic agonist activity at full length human RXR-LXR expressed in HEK293T cells co-expressing ABCA1-pGL3 at 1 uM after 12 to 14 hrs in presence of T090 by luciferase reporter gene assay; type: cell-based
[17] = Agonist activity at full length human PPARgamma-RXR expressed in HEK293T cells co-expressing PPRE1-pGL3 after 12 to 14 hrs by luciferase reporter gene assay; type: cell-based; settings: HEK-293T
[18] = Aqueous solubility of the compound after 24 hrs by HPLC analysis; type: physicochemical; settings: water
[19] = Lipophilicity, log P of the compound by HPLC analysis; type: physicochemical; settings: read-out: logP
[20] = Synergistic agonist activity at full length human PPARgamma-RXR expressed in HEK293T cells co-expressing PPRE1-pGL3 after 12 to 14 hrs in presence of rosiglitazone by luciferase reporter gene assay; type: cell-based; settings: HEK-293T
[21] = target: T10, Retinoid X receptor (Homo sapiens); assay: Agonist activity at RXR in human HepG2 cells assessed as induction of APOE mRNA expression at 1 to 10 uM after 8 hrs by RT-PCR analysis; type: cell-based
[22] = target: T10, Retinoid X receptor (Homo sapiens); assay: Agonist activity at RXR in human HepG2 cells assessed as induction of ADIPOQ mRNA expression at 1 to 10 uM after 8 hrs by RT-PCR analysis; type: cell-based
[23] = target: T1, Retinoic acid receptor RXR-alpha; assay: Binding affinity to human RXRalpha LBD by ITC
[24] = target: T3, Retinoic acid receptor RXR-beta (Homo sapiens); assay: Agonist activity at human Gal4-DBD fused RXRbeta LBD expressed in HEK293T cells at 30 uM after 12 to 14 hrs by luciferase reporter gene assay; type: cell-based
[25] = target: T2, Retinoic acid receptor RXR-gamma (Homo sapiens); assay: Agonist activity at human Gal4-DBD fused RXRgamma LBD expressed in HEK293T cells at 30 uM after 12 to 14 hrs by luciferase reporter gene assay; type: cell-based
[26] = target: T5, Retinoic acid receptor RXR-alpha (Homo sapiens); assay: Agonist activity at human Gal4-DBD fused RXRalpha LBD expressed in HEK293T cells at 30 uM after 12 to 14 hrs by luciferase reporter gene assay; type: cell-based

Sequence of Luciferin 4-monooxygenase (Photinus pyralis) (P08659 whole entry, the tested form may be a part): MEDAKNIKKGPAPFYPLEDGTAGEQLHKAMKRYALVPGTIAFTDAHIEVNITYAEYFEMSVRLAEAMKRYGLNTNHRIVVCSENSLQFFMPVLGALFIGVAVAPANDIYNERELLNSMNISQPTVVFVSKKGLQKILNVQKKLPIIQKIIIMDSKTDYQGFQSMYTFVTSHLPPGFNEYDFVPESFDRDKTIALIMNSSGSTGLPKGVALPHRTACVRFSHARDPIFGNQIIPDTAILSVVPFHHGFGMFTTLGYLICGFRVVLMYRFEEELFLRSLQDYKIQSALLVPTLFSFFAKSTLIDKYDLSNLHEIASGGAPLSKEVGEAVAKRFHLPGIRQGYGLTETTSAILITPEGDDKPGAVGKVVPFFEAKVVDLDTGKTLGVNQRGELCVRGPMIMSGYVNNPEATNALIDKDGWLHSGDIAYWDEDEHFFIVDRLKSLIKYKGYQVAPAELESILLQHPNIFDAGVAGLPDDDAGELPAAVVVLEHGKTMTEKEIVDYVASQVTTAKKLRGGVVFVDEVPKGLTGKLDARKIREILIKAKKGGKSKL

EC50 [1]: 6700 nM
Emax [2]: 5%
Emax [3]: 28%
Activity [4]: Active
Activity [5]: Active
EC50 [6]: 8800 nM
Activity [7]: Active
Activity [8]: Active
Emax [9]: 29%
EC50 [10]: 17000 nM
Compound: O=C(O)c1ccc(COc2ccc3c(c2)CCC3)cc1
Activity (HepG2): Non-Toxic

inhibition [11]: Active
inhibition [12]: Active
inhibition [13]: Active
Compound: O=C(O)c1cccc(COc2ccc3c(c2)CCC3)c1

Activity [14]: Active
EC50 [1]: 280 nM
Emax [2]: 94%
EC50 [17]: 1000 nM
Emax [3]: 44%
solubility at 24 h [18]: 1.31 µg/mL (≈ 4.3 µM)
logP [19]: 2.03
EC50 [6]: 310 nM
EC50 [20]: 470 nM
Emax [9]: 70%
Activity [21]: Active
Activity [22]: Active
EC50 [10]: 1600 nM
Kd [23]: 95 nM
Compound: O=C(O)c1ccc(COc2ccccc2-c2ccccc2)cc1
Activity (HepG2): Non-Toxic
Activity (Homo sapiens [15]): Active
Activity (Homo sapiens [16]): Active

Activity [24]: inactive
Activity [25]: inactive
Activity [26]: inactive
Compound: O=C(O)c1ccc(C(=O)Nc2ccc3c(c2)CCC3)cc1

— ChEMBL document CHEMBL4330185, “Computer-Assisted Discovery and Structural Optimization of a Novel Retinoid X Receptor Agonist Chemotype” (ACS Med Chem Lett, 2019)
